Reference: patent US20170190671A1, “BIS(ARYL)CATECHOL DERIVATIVES AS HERBICIDES” (E I DU PONT DE NEMOURS AND COMPANY, priority 2014, published 2017)

How the values were obtained:
Format in all cases: in vivo
[1] = system: giant foxtail (Setaria faberii); assay: Test A postemergence; conditions: 0 to 100 scale
Method in brief: (§1)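 Pre- and postemergence greenhouse screen. Soil: loam + sand. Spray carrier: solvent mixture, non-phytotoxic, with surfactant. Post timing at 1–2 leaves, height 2–10 cm. Readout: visual injury on a 0–100 scale roughly 10 days after application, untreated plants as reference.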

[2] = system: galium (catchweed bedstraw, Galium aparine); assay: Test A postemergence; conditions: 0 to 100 scale
Method in brief: as §1

[3] = system: Italian ryegrass (Lolium multiflorum); assay: Test A postemergence; conditions: 0 to 100 scale
Method in brief: as §1

[4] = system: ragweed (common ragweed, Ambrosia elatior); assay: Test A postemergence; conditions: 0 to 100 scale
Method in brief: as §1

kochia (Kochia scoparia) [5] = assay: Test A postemergence; conditions: 0 to 100 scale
Method in brief: as §1

corn (Zea mays) = assay: Test A postemergence; conditions: 0 to 100 scale
Method in brief: as §1

[6] = system: blackgrass (Alopecurus myosuroides); assay: Test A postemergence; conditions: 0 to 100 scale
Method in brief: as §1

[7] = system: barnyardgrass (Echinochloa crus-galli); assay: Test A postemergence; conditions: 0 to 100 scale
Method in brief: as §1

[8] = system: wheat (Triticum aestivum); assay: Test A postemergence; conditions: 0 to 100 scale
Method in brief: as §1

[9] = system: pigweed (Amaranthus retroflexus); assay: Test A postemergence; conditions: 0 to 100 scale
Method in brief: as §1

[10] = system: ducksalad (Heteranthera limosa); assay: Test B flooded paddy; conditions: 250 g ai/ha, Flood, 13 to 15 days, scale 0 (no effect) to 100 (complete control)
Method in brief: (§2)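 Pots were flooded to 3 cm above the soil surface at treatment, compound applied directly to the paddy water, and that depth held throughout. Plants were kept in a greenhouse for 13 to 15 days, then visually rated against untreated controls.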

rice (Oryza sativa) = assay: Test B flooded paddy; conditions: 250 g ai/ha, Flood, 13 to 15 days, scale 0 (no effect) to 100 (complete control)
Method in brief: as §2

[11] = system: sedge, umbrella (small-flower umbrella sedge, Cyperus difformis); assay: Test B flooded paddy; conditions: 250 g ai/ha, Flood, 13 to 15 days, scale 0 (no effect) to 100 (complete control)
Method in brief: as §2

[12] = system: barnyardgrass (Echinochloa crus-galli); assay: Test B flooded paddy; conditions: 250 g ai/ha, Flood, 13 to 15 days, scale 0 (no effect) to 100 (complete control)
Method in brief: as §2

[13] = system: giant foxtail (Setaria faberii); assay: Test A preemergence; conditions: for Foxtail, Giant plant response rating: 0 to 100 scale (0 no effect, 100 complete control)
Method in brief: as §1

[14] = system: Italian ryegrass (Lolium multiflorum); assay: Test A preemergence; conditions: for Ryegrass, Italian plant response rating: 0 to 100 scale (0 no effect, 100 complete control)
Method in brief: as §1

[15] = system: ragweed (common ragweed, Ambrosia elatior); assay: Test A preemergence; conditions: for Ragweed plant response rating: 0 to 100 scale (0 no effect, 100 complete control)
Method in brief: as §1

kochia (Kochia scoparia) [16] = assay: Test A preemergence; conditions: for Kochia plant response rating: 0 to 100 scale (0 no effect, 100 complete control)
Method in brief: as §1

[17] = system: barnyardgrass (Echinochloa crus-galli); assay: Test A preemergence
Method in brief: as §1

[18] = system: pigweed (Amaranthus retroflexus); assay: Test A preemergence; conditions: for Pigweed plant response rating: 0 to 100 scale (0 no effect, 100 complete control)
Method in brief: as §1

[19] = system: waterhemp (common waterhemp, Amaranthus rudis); assay: Test C postemergence; conditions: scale 0 to 100
Method in brief: (§3)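 Greenhouse test, preemergence on seeded soil or postemergence on 1- to 4-leaf plants. Response is a visual 0-100 rating versus controls, taken 13-15 days after treatment.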

[20] = system: pigweed (Amaranthus retroflexus); assay: Test C postemergence; conditions: scale 0 to 100
Method in brief: as §3

## Fc1cccc(Oc2ncc(Cl)cn2)c1Oc1ccc(Cl)nc1 [Compound 20]
[1]; Setaria faberi, post-emergence, 240 h, 1000 g ai/ha, read-out: Plant response rating, Foxtail, Giant
  pest or weed control at 1000 g/ha: 90%
[2]; Galium, post-emergence, 240 h, 1000 g ai/ha, read-out: Plant response rating, Galium
  pest or weed control at 1000 g/ha: 90%
[3]; Lolium multiflorum, post-emergence, 240 h, 1000 g ai/ha, read-out: Plant response rating, Ryegrass, Italian
  pest or weed control at 1000 g/ha: 40%
[4]; Ambrosia artemisiifolia, post-emergence, 240 h, 1000 g ai/ha, read-out: Plant response rating, Ragweed
  pest or weed control at 1000 g/ha: 60%
Kochia (Kochia scoparia) [5]; Bassia scoparia, post-emergence, 240 h, 1000 g ai/ha, read-out: Plant response rating, Kochia
  pest or weed control at 1000 g/ha: 90%
Corn (Zea mays); Zea mays, post-emergence, 240 h, 1000 g ai/ha
  Corn plant response rating (crop injury, 0 = no effect, 100 = complete kill) at 1000 g/ha: 50%
[6]; Alopecurus myosuroides, post-emergence, 240 h, 1000 g ai/ha, read-out: Plant response rating, Blackgrass
  pest or weed control at 1000 g/ha: 60%
[7]; Echinochloa crus-galli, post-emergence, 240 h, 1000 g ai/ha, 0 no effect, 100 complete control, read-out: Plant response rating, Barnyardgrass
  pest or weed control at 1000 g/ha: 90%
[8]; Triticum aestivum, post-emergence, 240 h, 1000 g ai/ha, read-out: Plant response rating, Wheat
  plant injury at 1000 g/ha: 50%
[9]; Amaranthus retroflexus, post-emergence, 240 h, 1000 g ai/ha, read-out: Plant response rating, Pigweed
  pest or weed control at 1000 g/ha: 100%
[10]; Heteranthera limosa, 336 h, read-out: Plant response rating, Ducksalad
  pest or weed control at 250 g/ha: 95%
Rice (Oryza sativa); Oryza sativa, 336 h, read-out: Plant response rating, Rice
  plant injury at 250 g/ha: 15%
[11]; Cyperus difformis, 336 h, read-out: Plant response rating, Sedge, Umbrella
  pest or weed control at 250 g/ha: 90%
[12]; Echinochloa crus-galli, 336 h, read-out: Plant response rating, Barnyardgrass
  pest or weed control at 250 g/ha: 20%
[13]; Setaria faberi, pre-emergence, 240 h, 1000 g ai/ha, 0 to 100 scale, read-out: Plant response rating, Foxtail, Giant
  pest or weed control at 1000 g/ha: 100%
[14]; Lolium multiflorum, pre-emergence, 240 h, 1000 g ai/ha, 0 to 100 scale, read-out: Plant response rating, Ryegrass, Italian
  pest or weed control at 1000 g/ha: 70%
[15]; Ambrosia artemisiifolia, pre-emergence, 240 h, 1000 g ai/ha, 0 to 100 scale, read-out: Plant response rating, Ragweed
  pest or weed control at 1000 g/ha: 40%
Kochia (Kochia scoparia) [16]; Bassia scoparia, pre-emergence, 240 h, 1000 g ai/ha, 0 to 100 scale, read-out: Plant response rating, Kochia
  pest or weed control at 1000 g/ha: 90%
[17]; Echinochloa crus-galli, pre-emergence, 240 h, 1000 g ai/ha, 0 to 100 scale, read-out: Plant response rating, Barnyardgrass
  pest or weed control at 1000 g/ha: 100%
[18]; Amaranthus retroflexus, pre-emergence, 240 h, 1000 g ai/ha, 0 to 100 scale, read-out: Plant response rating, Pigweed
  pest or weed control at 1000 g/ha: 100%
[19]; Amaranthus tuberculatus, post-emergence, Postemergence, 31 g ai/ha, read-out: Plant response rating, Waterhemp
  pest or weed control at 31 g/ha: 85%
[19]; Amaranthus tuberculatus, post-emergence, Postemergence, 62 g ai/ha, read-out: Plant response rating, Waterhemp
  pest or weed control at 62 g/ha: 90%
[19]; Amaranthus tuberculatus, post-emergence, Postemergence, 125 g ai/ha, read-out: Plant response rating, Waterhemp
  pest or weed control at 125 g/ha: 90%
[19]; Amaranthus tuberculatus, post-emergence, Postemergence, 250 g ai/ha, read-out: Plant response rating, Waterhemp
  pest or weed control at 250 g/ha: 95%
[20]; Amaranthus retroflexus, post-emergence, 336 h, Postemergence, 31 g ai/ha, read-out: Plant response rating, Pigweed
  pest or weed control at 31 g/ha: 75%
[20]; Amaranthus retroflexus, post-emergence, 336 h, Postemergence, 62 g ai/ha, read-out: Plant response rating, Pigweed
  pest or weed control at 62 g/ha: 80%
[20]; Amaranthus retroflexus, post-emergence, 336 h, Postemergence, 125 g ai/ha, read-out: Plant response rating, Pigweed
  pest or weed control at 125 g/ha: 90%
[20]; Amaranthus retroflexus, post-emergence, 336 h, Postemergence, 250 g ai/ha, read-out: Plant response rating, Pigweed
  pest or weed control at 250 g/ha: 98%

## Fc1ccc(F)c(Oc2ncc(C(F)(F)F)cn2)c1Oc1ncc(Cl)cn1 [Compound 25]
[1]; 31 g ai/ha
  Plant response rating, Foxtail, Giant: 30
[1]; 125 g ai/ha
  Plant response rating, Foxtail, Giant: 50
[2]; 31 g ai/ha
  Plant response rating, Galium: 80
[2]; 125 g ai/ha
  Plant response rating, Galium: 90
[3]; 31 g ai/ha
  Plant response rating, Ryegrass, Italian: 0
[3]; 125 g ai/ha
  Plant response rating, Ryegrass, Italian: 50
[4]; 31 g ai/ha
  Plant response rating, Ragweed: 20
[4]; 125 g ai/ha
  Plant response rating, Ragweed: 30
Kochia (Kochia scoparia) [5]; 31 g ai/ha
  Plant response rating, Kochia: 50
Kochia (Kochia scoparia) [5]; 125 g ai/ha
  Plant response rating, Kochia: 70
Corn (Zea mays); 31 g ai/ha
  Plant response rating, Corn: 10
Corn (Zea mays); 125 g ai/ha
  Plant response rating, Corn: 30
[6]; 31 g ai/ha
  Plant response rating, Blackgrass: 60
[6]; 125 g ai/ha
  Plant response rating, Blackgrass: 70
[7]; 31 g ai/ha
  Plant response rating, Barnyardgrass: 10
[7]; 125 g ai/ha
  Plant response rating, Barnyardgrass: 60
[8]; 31 g ai/ha
  Plant response rating, Wheat: 0
[8]; 125 g ai/ha
  Plant response rating, Wheat: 30
[9]; 31 g ai/ha
  Plant response rating, Pigweed: 90
[9]; 125 g ai/ha
  Plant response rating, Pigweed: 100
[10]
  Plant response rating, Ducksalad: 90
Rice (Oryza sativa)
  Plant response rating, Rice: 20
[11]
  Plant response rating, Sedge, Umbrella: 75
[12]
  Plant response rating, Barnyardgrass: 55
[13]; 31 g ai/ha
  Foxtail, Giant plant response rating: 50
[13]; 125 g ai/ha
  Foxtail, Giant plant response rating: 90
[14]; 31 g ai/ha
  Ryegrass, Italian plant response rating: 10
[14]; 125 g ai/ha
  Ryegrass, Italian plant response rating: 40
[15]; 31 g ai/ha
  Ragweed plant response rating: 0
[15]; 125 g ai/ha
  Ragweed plant response rating: 0
Kochia (Kochia scoparia) [16]; 31 g ai/ha
  Kochia plant response rating: 50
Kochia (Kochia scoparia) [16]; 125 g ai/ha
  Kochia plant response rating: 100
[17]; 31 g ai/ha, 0 to 100 scale (0 no effect, 100 complete control)
  Barnyardgrass plant response rating: 10
[17]; 125 g ai/ha, 0 to 100 scale
  Plant response rating, Barnyardgrass: 70
[18]; 31 g ai/ha
  Pigweed plant response rating: 90
[18]; 125 g ai/ha
  Pigweed plant response rating: 100
[19]; 8 g ai/ha, postemergence
  Plant response rating, Waterhemp: 90
[19]; Postemergence, 31 g ai/ha
  Plant response rating, Waterhemp: 50
[19]; Postemergence, 62 g ai/ha
  Plant response rating, Waterhemp: 75
[20]; 8 g ai/ha, postemergence
  Plant response rating, Pigweed: 75
[20]; Postemergence, 31 g ai/ha
  Plant response rating, Pigweed: 85
[20]; Postemergence, 62 g ai/ha
  Plant response rating, Pigweed: 95
